In series [1] the test system is herpes simplex type 1 virus (HFEM strain). Kind of series: Plaque reduction test in Vero cells infected with herpes simplex type 1 virus. Format: cell-based. Conditions: Human alphaherpesvirus 1, 144 h, concentration causing a 50% reduction in the number of virus plaques, Vero cells, HFEM strain, 6 days at 37°C, read-out: PDD50 (the source's name). As for the experimental part:
(§1) Vero (African Green Monkey Kidney) cells were grown to confluence in 6 well multidishes, each well being 3.5 cm in diameter. The cells were incubated with herpes simplex type 1 virus (HFEM strain) and overlaid with 0.5 mL of 0.9% agarose (w/v) in maintenance medium containing the test compound at a range of concentrations from 100 pg/mL in half-log dilution steps. The virus infected cultures were then incubated at 37°C for 6 days before fixing in 4% formaldehyde solution and staining with carbolfuchsin. The dishes were then examined to find the concentration of test compound causing a 50% reduction in the number of virus plaques formed (PDD50 value) and the minimum concentration of test compound which killed the cell monolayer, leaving a clear zone devoid of cells and virus plaques (MTD).
(In general: In a plaque reduction assay, fewer plaques than in the control indicate reduced infectivity or spread.)

The nature of series [2]: Minimum concentration killing the cell monolayer (MTD), read in the plaque reduction test. Conditions: monkey, vero cells; minimum concentration which killed the cell monolayer; virus infected Vero cultures, 6 days at 37°C. In kind it is cell-based, African Green Monkey. On the procedure:
as §1

The structures appear in SMILES notation. Like-named read-outs stand apart in the source and are kept apart here.

In the case of `CN(C)c1ccc(C(=O)O[C@H]2C[C@H](n3cc(/C=C/Br)c(=O)n(C(=O)c4ccc(N(C)C)cc4)c3=O)O[C@@H]2CO)cc1` [Example 48, E-5-(2-Bromovinyl)-3-N-(p-dimethylaminobenzoyl)-3'-O-(p-dimethylaminobenzoyl)-2'-deoxyuridine], the IC50 turned out to be 0.94 µM in series [1] (molar) and 0.47 mg/L in series [1]. Besides, the MCC at 144 h in series [2] is more than 100 µg/mL.
Taken in the same sequence, the figures for `Cc1ccccc1C(=O)O[C@H]1C[C@H](n2cc(/C=C/Br)c(=O)n(C(=O)c3ccccc3C)c2=O)O[C@@H]1CO` [Example 49] were 1.1 µM, 0.55 mg/L and 100 µg/mL.

The record behind these values is patent EP0082668A1, “5-(2-Halogenovinyl)-2'-deoxyuridine derivatives, processes for their preparation, pharmaceutical compositions containing them and their use in treating viral infections” (BEECHAM GROUP PLC, priority 1981, dated 1983).
